Data from paper PMC3298710, “^111In-BnDTPA-F3: an Auger electron-emitting radiotherapeutic agent that targets nucleolin” (EJNMMI Research, 2012).

System: 231-H2N cells
Assay: Clonogenic survival
Type: cell-based, human
Conditions: 24 h, amount equivalent to 2 μM 111In-BnDTPA-F3 at highest specific activity, from 100 ± 5%
Protocol: […] After incubation at 37°C for 24 h, 2 × 10^3 cells were seeded per well in a 6-well plate, and 2 mL of fresh growth medium was added. After 7 to 14 days, cell colonies were stained with methylene blue (2% methylene blue in water/methanol 1:1) and counted. Combination indices (CI) of ^111In with BnDTPA-F3 were determined as described by Edelman et al.. A CI < 0.9 indicates superadditivity.

[Cl][111In]([Cl])[Cl] [111In chloride]
clonogenic survival, equivalent amount of 111In chloride: 46 ± 4%
